Source: US20100266681A1, “FATTY ACID ALCOHOLS” (priority 2006, published 2010)

Tested on: APOE*3Leiden mice
Assay: Effects on lipid metabolism in vivo, APOE*3Leiden mice on Western-type diet
Conditions: female heterozygous APOE*3Leiden mice, oral admix to Western-type diet, plasma after 4 hour fast, delta = level at t=0 minus level at t=3, doses 565 (Group 2), 497 (Group 3), 1 (Group 4) mg/kg bw/d
Procedure: The invented compositions were tested in an animal model as described below.
Female heterozygous APOE*3Leiden mice was used, and housed during the experiment in macrolon cages (three or four mice per cage), in clean-conventional animal rooms (relative humidity 50-60%, temperature ˜21° C., light cycle 7 am to 7 pm). Individual animals were marked by ear punch-holes. Mice were supplied with food and acidified tap water ad libitum.
The mice received a semi-synthetic modified Western-type diet (WTD) as described by Nishina et al (J Lipid Res 1990; 31: 859), containing cholesterol (0.25% w/w, final concentration) and 15% cacaobutter.
All test compounds were administered orally as admix to the Western-type diet. The lyophilized diet chunks were stored in vacuum bags in the dark in an alarm-secured −20° C. room. The diets on the cages of the mice were changed twice a week.
APOE*3Leiden mice were put on a semi-synthetic Western-type diet (WTD, 15% cocoa butter, 40% sucrose and 0.25% cholesterol; all w/w). After a 4 weeks run-in period low-responder mice were removed from the study and the remaining mice were sub-divided into five groups of 10 mice each, matched for plasma cholesterol, triglycerides, free fatty acids and age (t=0) […]
After 3 weeks of treatment (t=3 weeks) blood samples were taken after 4 hour-fast period and plasma total cholesterol (TC), total triglycerides (TG) were measured. […]

CC(C)OC(=O)C(C)(C)Oc1ccc(C(=O)c2ccc(Cl)cc2)cc1 [Group 4, Fenofibrate]
Delta cholesterol plasma levels (delta TC) after treatment period of 3 weeks, Mean (delta TC): 4.71
Delta triglyceride plasma levels (delta TG) after treatment period of 3 weeks, Mean (delta TG): 1.16
